In publication PMC8568133, “Evaluation of bisphenylthiazoles as a promising class for combating multidrug-resistant fungal infections” (PLoS ONE, 2021):
In brackets after ≈: the same amount, converted by molar mass. Where two headings read alike, the source gives them in different places.

Assays:
[1] = test system: E. coli BW25113 (wild-type); assay: Broth microdilution MIC, initial antibacterial screening; assay type: cell-based, Escherichia coli; conditions: Escherichia coli, read-out: MIC
Procedure, shortened: (§1)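 Broth microdilution per CLSI with ~5 × 10^5 CFU/mL inoculum and serially diluted compounds. S. aureus and E. coli were tested in CAMHB, aerobic, 37 °C, 18–20 h; C. difficile in supplemented brain heart infusion broth (yeast extract, hemin, vitamin K), anaerobic, 37 °C, 48 h. MIC read as visible growth.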

[2] = test system: E. coli JW55031 (tolC-mutant); assay: microbe, parasite or virus in culture; assay type: cell-based, Escherichia coli; conditions: Escherichia coli
Procedure, shortened: as §1

Cryptococcus gattii = assay: Antifungal broth microdilution MIC (50% growth inhibition, 48 h); assay type: cell-based; conditions: Cryptococcus gattii, read-out: MIC
Description: (§2) Serial dilutions (from 128 μg/mL to 0.06 μg/mL) of the tested compounds and control drugs (fluconazole, itraconazole and amphotericin) (in triplicates), were screened against clinical isolates of Candida albicans, Candida auris, Candida glabrata, Candida parapsilosis, Candida tropicalis, Candida krusei, Cryptococcus neoformans, Cryptococcus gattii and Aspergillus fumigatus species using the broth microdilution method according to the Clinical and Laboratory Standards Institute guidelines. MICs were determined as the lowest concentration of the compounds that inhibited the fungal growth by 50% after incubation at 35 °C for 24 h (for Candida and Aspergillus), or 48 h (for Cryptococcus). The minimum fungicidal concentration (MFC) of these compounds was tested by plating 4 μL from wells with no growth onto YPD agar plates. The plates were incubated at 37 °C for 24 hours before recording the MFC, which was categorized as the lowest concentration that reduced fungal growth by 99.9% [45]. The experiment was repeated three independent times.

Cryptococcus neoformans = assay: as above; assay type: cell-based; conditions: Cryptococcus neoformans, read-out: MIC
Description: as §2

[3] = test system: monkey kidney epithelial cells (Vero); assay: In vitro cytotoxicity, MTS assay
Description: (§3) Fig 2 In vitro cytotoxicity assay of bisphenylthiazole compounds 7, 16 and 17 (tested in triplicates at 32, 64 and 128 μg/mL) against: A) human colorectal cells (Caco-2), and B) monkey kidney epithelial cells (Vero) after 24-hours exposure time, using the MTS 3-(4,5-dimethylthiazol-2-yl)-5-(3-carboxymethoxyphenyl)-2-(4-sulfophenyl)-2H-tetrazolium) assay. The data represent the percentage of viable Caco-2 or Vero cells measured as the average absorbance relative to DMSO after exposure to the tested compounds. Dimethyl sulfoxide (DMSO) was used as a negative control. Error bars represent the standard deviation values.
(§4) To explore the tolerability of bisphenylthiazoles, their cytotoxicity profile was assessed in human colorectal adenocarcinoma (Caco-2) and monkey kidney epithelial cells (Vero) as described earlier. Briefly, compounds were incubated with the cells for 24 hours. Then, cells were incubated with MTS reagent for 3 hours before measuring the absorbance values (OD490). The experiment was repeated in two independent times.

[4] = test system: human colorectal cells (Caco-2); assay: In vitro cytotoxicity, MTS assay; conditions: human, 24 h
Description: as §3, §4

Candida strains = assay: Minimum fungicidal concentration, summary over Candida strains; assay type: cell-based; conditions: strains of Table 6
Description: as §2

Candida parapsilosis = assay: Antifungal broth microdilution MIC (50% growth inhibition); assay type: cell-based; conditions: Lodderomyces parapsilosis, read-out: MIC
Procedure, shortened: (§5)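 Read-out was the lowest concentration inhibiting fungal growth by 50% (MIC) or reducing it by 99.9% after subculture onto YPD agar (MFC). Testing followed CLSI broth microdilution on clinical isolates at 35 °C, 24 h for Candida and 48 h for Cryptococcus.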

Aspergillus fumigatus = assay: as above; assay type: cell-based; conditions: Aspergillus fumigatus
Procedure, shortened: as §5

Candida auris = assay: Checkerboard assay of compound 17 with standard antifungals; assay type: cell-based; conditions: for MIC: Candidozyma auris, checkerboard, agent alone
MRSA USA300 = assay: Broth microdilution MIC, initial antibacterial screening; assay type: cell-based, S. aureus; conditions: Staphylococcus aureus; MRSA USA300; read-out: MIC
Procedure, shortened: as §1

[5] = test system: Lactobacillus gasseri HM-400; assay: Broth microdilution MIC against normal human microbiota; assay type: cell-based; conditions: HM400; Lactobacillus gasseri HM-400; read-out: MIC
Description: (§6) Broth microdilution was utilized to determine the activity of bisphenylthiazoles against the human gut microflora as described elsewhere. A bacterial solution equivalent to 0.5 McFarland standards was prepared and diluted in MRS broth to achieve a bacterial concentration of approximately 5 x 10^5 CFU/mL. Then, compounds/control antifungals (in triplicates), were added to the plates and serially diluted with media containing bacteria. The plates were incubated for 48 hours at 37 °C before recording the MIC values. The experiment was repeated three independent times.

[6] = test system: Lactobacillus crispatus HM-370; assay: as above; assay type: cell-based; conditions: HM370; Lactobacillus crispatus HM-370; read-out: MIC
Description: as §6

[7] = test system: C. difficile ATCC BAA1870; assay: Broth microdilution MIC, initial antibacterial screening (anaerobic); assay type: cell-based, Clostridioides difficile; conditions: Clostridioides difficile, ATCCBAA1870, read-out: MIC
Procedure, shortened: as §1

In the case of `Cc1nc(-c2ccc(-c3ccccc3)cc2)sc1-c1nnc(N[C@@H]2CCCC[C@@H]2N)o1` (relative stereo) [Compound 17, cis-N-{5-[2-((1,1’-Biphenyl)-4-yl)-4-methylthiazol-5-yl]-1,3,4-oxadiazol-2-yl}cyclo-hexane-1,2-diamine], the MIC [1] is reported as > 64 µg/mL, the melting point is reported as 145 to 146 °C and the MIC [2] is reported as > 64 µg/mL. It also gave an MIC (Cryptococcus gattii; C. gattii NR 43209) of 0.5 µg/mL (≈ 1.16 µM), an MIC (Cryptococcus gattii; C. gattii NR 43210) of 0.5 µg/mL (≈ 1.16 µM) and an MIC (Cryptococcus neoformans; C. neoformans NR 41298) of 1 µg/mL (≈ 2.32 µM). For the same molecule, the MIC (Cryptococcus neoformans; C. neoformans NR 41300) was 1 µg/mL (≈ 2.32 µM), the MIC (Cryptococcus neoformans; C. neoformans NR 48770) was 1 µg/mL (≈ 2.32 µM) and the “concentration up to which non-toxic” value ([3]; Vero, 24 h exposure, MTS) was ≤ 64 µg/mL. The “times more tolerable than amphotericin B” value ([3]; relative to amphotericin B) was 16 times, the “concentration up to which non-toxic” value [4] was ≤ 64 µg/mL and the “fungistatic or fungicidal activity” value (Candida strains) was “fungistatic”. It also gave an MIC (Candida parapsilosis; ATCC22019, C. parapsilosis ATCC 22019) of 1 µg/mL (≈ 2.32 µM), an MIC (Candida parapsilosis; C. parapsilosis CAB 502638) of 1 µg/mL (≈ 2.32 µM) and an MIC (Aspergillus fumigatus; A. fumigatus NR 35303, read-out: MIC) of 4 µg/mL (≈ 9.27 µM). The MIC (Aspergillus fumigatus; A. fumigatus NR 35304, read-out: MIC) was 4 µg/mL (≈ 9.27 µM), the MIC (Aspergillus fumigatus; tested A. fumigatus isolates (Table 5), read-out: MIC against Aspergillus fumigatus) was 4 µg/mL (≈ 9.27 µM) and the “MIC Combined, 17” value (Candida auris; Candida auris 381, compound 17 in combination with 5-Fluorocytosine) was 0.25 µg/mL. For the same molecule, the “MIC Combined, 17” value (Candida auris; Candida auris 381, compound 17 in combination with Amphotericin B) was 0.25 µg/mL, the “MIC Combined, 17” value (Candida auris; Candida auris 381, compound 17 in combination with Caspofungin) was 0.25 µg/mL and the “MIC Combined, 17” value (Candida auris; Candida auris 381, compound 17 in combination with Fluconazole) was 0.25 µg/mL. For the same molecule, the “MIC Combined, 17” value (Candida auris; Candida auris 385, compound 17 in combination with 5-Fluorocytosine) was 0.25 µg/mL, the “MIC Combined, 17” value (Candida auris; Candida auris 385, compound 17 in combination with Amphotericin B) was 0.25 µg/mL and the “MIC Combined, 17” value (Candida auris; Candida auris 385, compound 17 in combination with Caspofungin) was 0.25 µg/mL. For the same molecule, the “MIC Combined, 17” value (Candida auris; Candida auris 385, compound 17 in combination with Fluconazole) was 2 µg/mL, the MIC (Candida auris; Candida auris 381 (azole-sensitive)) was 1 µg/mL and the MIC (Candida auris; Candida auris 385 (azole-resistant)) was 2 µg/mL. The “relationship when combined with antifungals” value (Candida auris; combined with either fluconazole, 5-fluorocytosine or caspofungin, two tested C. auris isolates) was “additive”, the MIC (MRSA USA300) was > 64 µg/mL and the MIC [5] was 128 µg/mL (≈ 297 µM). For the same molecule, the MIC [6] was > 128 µg/mL and the MIC [7] was 64 µg/mL (≈ 148 µM).
